Experimental data reported in patent US20100167260A1, “Use of N-Piperidine Derivative Compositions for Protecting Biological Systems” (MEDESTEA RESEARCH & PRODUCTION SPA, priority 2006, published 2010).

How the values were obtained:
rabbit heart [1] = assay: Rabbit heart cold preservation (24 h, 4° C.) and Langendorff reperfusion: developed pressure
Procedure: Male New Zealand rabbits (1.4-1.8 kg weight) were kept on a standard laboratory diet supplemented with “Nossan pellet” (both the animals and pellets are available from Nossan Company, Milan, Italy) and were housed for three weeks (relative humidity 50% ±10%, temperature 22° C.±1° C. and in a light/darkness cycle of 12 hours/12 hours, with first light at 7.30 a.m.) prior to the experiments; food and water were available ad libitum.
The hearts were quickly excised from anesthetized animals (55 mg/kg body weight sodium pentobarbital; ten rabbits for each experiment group were used) flushed with the respective experimental solutions and placed in either cold (4° C.) Celsior and Celsior plus 5 mM MP1001 or Celsior plus GSH 5 mM for 24 hours. Because Celsior standard solution contains 3 mM reduced glutathione (GSH), comparative experiments in term of “total antioxidant power” using equimolar antioxidant amount (e.g. adding 5 mM MP1001 or 5 mM GSH to Celsior) were performed. […]
After 24 hours of cold preservation and reperfusion for 1 hour, the developed pressure (as a measure of protection) of the hearts preserved in Celsior (standard/control) was a mean of 34±9.55 mmHg. […] We determined that this level of recovery was not sufficient and proceeded to add the cardioprotective antioxidant MP1001 (5 mM) or GSH (5 mM, to have a final, equimolar 8 mM “antioxidant concentration”).

rabbit heart [2] = assay: Lipid peroxidation (MDA release) in rabbit hearts after 1 h reperfusion
Procedure: (§1) The hearts were quickly excised from anesthetized animals (55 mg/kg body weight sodium pentobarbital; ten rabbits for each experiment group were used) flushed with the respective experimental solutions and placed in either cold (4° C.) Celsior and Celsior plus 5 mM MP1001 or Celsior plus GSH 5 mM for 24 hours. Because Celsior standard solution contains 3 mM reduced glutathione (GSH), comparative experiments in term of “total antioxidant power” using equimolar antioxidant amount (e.g. adding 5 mM MP1001 or 5 mM GSH to Celsior) were performed.
(§2) At the end of cold preservation, the organs were then reperfused in a Langerdoff working heart model with oxygenated Krebs-Henseleit buffer (120 mM NaCl, 25 mM NaHCO3, 4.9 mM KCl, 1.2 mM KH2PO4, 2.5 mM CaCl2, 1.25 MgSO4 and 10 mM glucose). The buffers were bubbled regularly with a mixture of O2 (95%) and CO2 (5%); the CO2 helped maintain the buffer at a physiological pH (7.4). In the mean time, the apparatus had extensive water-jacketing connected to a water heater that maintained buffers and hearts at 37° C. The buffers was filtered through a Gelman GA-4, 0.8 μm metrical, membrane before the use. […]
(§3) Lipid peroxidation was determined by quantification of the release of malondialdeyde (MDA) accumulated in cells which was used as biomarker, essentially according to Buege Y. A. & Aust S. G., Method Enzymol. […]

rabbit heart [3] = assay: Carbonyl proteins in rabbit hearts after 1 h reperfusion
Procedure: as §1, §2, §3

rabbit heart [4] = assay: LDH levels in the perfusate of rabbit hearts after 1 h reperfusion
Procedure: as §1, §2, §3

rabbit heart [5] = assay: Histopathological analysis of rabbit hearts after 1 h reperfusion; details: hearts stored in Celsior plus 5 mM MP1001 as compared to GSH
Procedure: as §1
as §2, with “use. A saline-filled latex balloon connected through a pressure transducer to a polygraph recorder was inserted into the left ventricle through a left atriotomy and secured by a suture to the mitrial annulus.” for “use.”

[6] = rabbit hearts, 24 h cold preservation in Celsior (additive 5 mM where given)

SMILES	protection (developed pressure) compared to standard Celsior solution (rabbit heart [1]; 5 mM added to Celsior (8 mM GSH final), 24 hours cold preservation, 1 h reperfusion)	effect on lipid peroxidation vs standard Celsior (rabbit heart [2]; additional 5 mM in Celsior)	effect on carbonyl proteins vs standard Celsior (rabbit heart [3]; 5 mM supplement in Celsior)	effect on LDH vs standard Celsior (rabbit heart [4]; 5 mM supplement in Celsior)	developed pressure (rabbit heart [1]; rabbit hearts, 24 hours cold (4° C.) preservation in Celsior (additive 5 mM where given), reperfusion for 1 hour) [mmHg]	lipid peroxidation (malondialdeyde, MDA) (rabbit heart [2]; [6])	carbonyl proteins (rabbit heart [3]; [6])	LDH levels in the perfusate (rabbit heart [4]; [6])	histopathological analysis (myocyte injury, edema, endotelial damage) (rabbit heart [5])
N[C@@H](CCC(=O)N[C@@H](CS)C(=O)NCC(=O)O)C(=O)O [GSH, reduced glutathione, reference compound]	did not provide any additional protection	did not significantly modify this parameter	not modified	not modified					
CC1(C)CC(OC(=O)CCCCCCCCC(=O)OC2CC(C)(C)N(O)C(C)(C)C2)CC(C)(C)N1O [MP1001, bis(1-hydroxy-2,2,6,6-tetramethyl-4-piperidinyl)decandioate]					88±9.02	0.31±0.10	48±11	0.3±0.1	Hearts sustained less injury by all criteria examined
